The assay deals with T1, recombinant human (rh) KLK5 (Homo sapiens, UniProt Q9Y337).
T1 construct: purchased R&D Systems 1108-SE
T1 sequence (Q9Y337 23-293): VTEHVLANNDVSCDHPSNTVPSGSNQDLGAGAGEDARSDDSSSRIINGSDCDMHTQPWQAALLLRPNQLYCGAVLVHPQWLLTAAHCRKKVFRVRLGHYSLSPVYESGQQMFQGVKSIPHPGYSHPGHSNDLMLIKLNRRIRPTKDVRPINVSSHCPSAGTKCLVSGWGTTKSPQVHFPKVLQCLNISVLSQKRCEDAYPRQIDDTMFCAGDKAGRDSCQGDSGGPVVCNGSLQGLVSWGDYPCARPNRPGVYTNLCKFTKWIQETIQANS
In words: Enzymatic activity of KLK5 (fluorogenic peptide substrate Boc-V-P-R-AMC). The note with it: FIG. 1; for KLK5 activity compared to that of salicylic acid: rhKLK5, rate of enzyme activity relative to salicylic acid. In kind it is biochemical. An excerpt:
In the stratum corneum, skin's outermost layer, cell-to-cell cohesion depends primarily on proteins known as the corneodesmosomes. During skin remodeling and renewal dead cells are shed from the skin surface by the action of native proteases that break down the corneodesmosomes. […] Hypothetically, up-regulation of the activities of these proteases using different active candidates could be utilized to increase the rate of shedding of dead skin, thus providing a natural means for skin exfoliation. To this end, the enzymatic activity of a member of the KLK family, recombinant human (rh) KLK5, was monitored following pre-incubation with actives and measuring the rate of peptide bond cleavage of a synthetic substrate.
Enzymatic activity of KLK5 was measured by incubating recombinant human (rh) KLK5 protease (R&D Systems, Cat No. 1108-SE) with a specific fluorogenic peptide substrate Boc-V-P-R-AMC (R& D Systems, Cat No. ES011). The substrate is conjugated to a quenched fluorescent group. Upon cleavage of the adjacent peptide bond, the fluorescent signal is released, resulting in a measureable emission at […] when excited at 340 nm wavelength. Increase in fluorescence reading indicates an increase in rhKLK5 activity. The test compounds were reacted with recombinant rhKLK5 protease for 60 seconds followed by addition of Boc-V-P-R-AMC Fluorogenic Peptide Substrate. After 60 seconds of incubation, fluorescence was measured at 340 nm (Excitation wavelength) and 485 nm (Emission wavelength) every 1 minute for 7 minutes. Rate (kinetics) of enzyme activity was calculated as follows: Rate of enzyme activity=Change of fluorescent reading (after background correction)/Change of reaction time (min). Percent change of activity due to a test compound was calculated by comparing rate of enzyme activity in the presence of the test compound to that of a control without the test compound and statistical significance was calculated using a t-test. Additionally, the rate of activity of the compounds was compared to that of salicylic acid.

Molecules are shown by their SMILES.

With `O=C(O)c1cc2ccccc2cc1O` [3-hydroxy-2-napthoic acid], the “KLK5 activity compared to that of salicylic acid” value (“KLK5 activity compared to that” for short) is on record as “potent stimulator of KLK5, as it is increased beyond salicylic acid”.

As to `O=C(O)c1ccccc1O` [salicylic acid], where the note is “salicylic acid as the benchmark”, the “percentage of KLK5 activity relative to salicylic acid” value was found to be 100%.

As to `O=C(O)c1c(O)ccc2ccccc12` [2-hydroxy-1-napthoic acid], the “KLK5 activity compared to that” value is “substantially less KLK5 activity than salicylic acid”.

For the compound `O=C(O)c1ccc2ccccc2c1O` [1-hydroxy-2-napthoic acid], the “KLK5 activity compared to that” value is listed as “substantially less KLK5 activity than salicylic acid”.

The record behind these values is patent publication US20150182434A1, “COSMETIC USE OF NAPTHOIC ACID DERIVATIVES” (Avon Products, Inc., priority 2013, published 2015).
